According to publication PMC6407917, “Identification of GSK3186899/DDD853651 as a Preclinical Development Candidate for the Treatment of Visceral Leishmaniasis” (Journal of Medicinal Chemistry, 2018):

Columns and labels:
Test in all cases: biochemical
Parameters in all cases: species or system HEK293/K-562/placenta mixed human extract; Kinobeads chemoproteomic competition binding, quantified by TMT LC-MS/MS, dose response up to 20 uM
CAMKK1 = CAMKK1 (Homo sapiens, UniProt Q8N5S9)
CDK10 = CDK10 (Homo sapiens, UniProt Q15131)
CHUK = CHUK (Homo sapiens, UniProt O15111)
DCK = DCK (Homo sapiens, UniProt P27707)
EPHA7 = EPHA7 (Homo sapiens, UniProt Q15375)
JAK3 = JAK3 (Homo sapiens, UniProt P52333)
MAP2K1 = MAP2K1 (Homo sapiens, UniProt Q02750)
MAP2K4 = MAP2K4 (Homo sapiens, UniProt P45985)
MAPK7 = MAPK7 (Homo sapiens, UniProt Q13164)
NUAK2 = NUAK2 (Homo sapiens, UniProt Q9H093)
OXSR1 = OXSR1 (Homo sapiens, UniProt O95747)
PIM2 = PIM2 (Homo sapiens, UniProt Q9P1W9)
RPS6KA3 = RPS6KA3 (Homo sapiens, UniProt P51812)
RPS6KA6 = RPS6KA6 (Homo sapiens, UniProt Q9UK32)
SLK = SLK (Homo sapiens, UniProt Q9H2G2)
SNRK = SNRK (Homo sapiens, UniProt Q9NRH2)
STK10 = STK10 (Homo sapiens, UniProt O94804)
STK17A = STK17A (Homo sapiens, UniProt Q9UEE5)
STK39 = STK39 (Homo sapiens, UniProt Q9UEW8)
TAOK1 = TAOK1 (Homo sapiens, UniProt Q7L7X3)
TNIK = TNIK (Homo sapiens, UniProt Q9UKE5)

Measured: IC50

Chain of DCK (P27707 whole entry): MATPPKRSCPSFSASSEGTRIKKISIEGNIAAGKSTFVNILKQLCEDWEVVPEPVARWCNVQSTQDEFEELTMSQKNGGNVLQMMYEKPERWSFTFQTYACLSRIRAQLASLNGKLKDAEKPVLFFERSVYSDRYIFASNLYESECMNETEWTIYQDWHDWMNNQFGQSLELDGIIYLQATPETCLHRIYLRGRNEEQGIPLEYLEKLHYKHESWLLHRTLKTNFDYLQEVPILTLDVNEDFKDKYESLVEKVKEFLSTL
Chain of SNRK (Q9NRH2 whole entry): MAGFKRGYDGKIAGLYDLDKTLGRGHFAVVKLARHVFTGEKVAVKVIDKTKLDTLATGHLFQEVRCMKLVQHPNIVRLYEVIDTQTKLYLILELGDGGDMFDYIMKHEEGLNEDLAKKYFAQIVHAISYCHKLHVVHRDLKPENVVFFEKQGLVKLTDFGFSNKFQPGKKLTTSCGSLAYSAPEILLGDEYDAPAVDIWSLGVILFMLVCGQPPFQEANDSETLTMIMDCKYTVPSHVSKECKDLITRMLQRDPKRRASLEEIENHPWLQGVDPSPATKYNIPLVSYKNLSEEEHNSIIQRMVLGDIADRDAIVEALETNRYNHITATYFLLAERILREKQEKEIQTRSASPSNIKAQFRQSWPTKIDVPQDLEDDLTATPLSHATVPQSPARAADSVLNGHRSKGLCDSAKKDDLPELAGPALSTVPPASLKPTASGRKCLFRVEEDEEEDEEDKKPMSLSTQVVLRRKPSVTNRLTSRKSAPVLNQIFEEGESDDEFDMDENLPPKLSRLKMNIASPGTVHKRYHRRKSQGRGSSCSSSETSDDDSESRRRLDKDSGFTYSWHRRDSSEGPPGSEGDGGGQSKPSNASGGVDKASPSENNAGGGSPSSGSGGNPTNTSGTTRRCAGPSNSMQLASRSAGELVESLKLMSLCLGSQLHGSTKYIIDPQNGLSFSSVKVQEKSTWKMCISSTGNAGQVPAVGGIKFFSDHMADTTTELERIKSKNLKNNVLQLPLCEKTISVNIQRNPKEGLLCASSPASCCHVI
Chain of CHUK (O15111 whole entry): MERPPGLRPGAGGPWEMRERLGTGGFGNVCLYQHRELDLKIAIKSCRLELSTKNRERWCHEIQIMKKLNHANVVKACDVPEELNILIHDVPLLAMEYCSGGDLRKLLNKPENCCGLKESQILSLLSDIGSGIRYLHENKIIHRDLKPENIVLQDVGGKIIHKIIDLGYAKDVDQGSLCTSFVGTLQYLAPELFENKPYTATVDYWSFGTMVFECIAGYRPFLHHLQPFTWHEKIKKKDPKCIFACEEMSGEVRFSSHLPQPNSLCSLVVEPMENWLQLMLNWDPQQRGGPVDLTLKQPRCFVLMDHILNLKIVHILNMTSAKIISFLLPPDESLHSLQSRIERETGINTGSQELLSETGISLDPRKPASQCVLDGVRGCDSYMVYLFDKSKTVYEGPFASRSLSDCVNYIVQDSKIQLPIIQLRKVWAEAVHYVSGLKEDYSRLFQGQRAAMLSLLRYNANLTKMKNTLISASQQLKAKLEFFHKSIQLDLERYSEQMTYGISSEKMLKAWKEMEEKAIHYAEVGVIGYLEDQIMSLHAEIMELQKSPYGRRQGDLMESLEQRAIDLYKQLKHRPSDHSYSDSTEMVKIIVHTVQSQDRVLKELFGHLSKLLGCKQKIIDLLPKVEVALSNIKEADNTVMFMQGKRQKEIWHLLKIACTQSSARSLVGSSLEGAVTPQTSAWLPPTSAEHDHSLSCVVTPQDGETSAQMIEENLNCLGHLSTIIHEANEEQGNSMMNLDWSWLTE
Chain of RPS6KA3 (P51812 whole entry): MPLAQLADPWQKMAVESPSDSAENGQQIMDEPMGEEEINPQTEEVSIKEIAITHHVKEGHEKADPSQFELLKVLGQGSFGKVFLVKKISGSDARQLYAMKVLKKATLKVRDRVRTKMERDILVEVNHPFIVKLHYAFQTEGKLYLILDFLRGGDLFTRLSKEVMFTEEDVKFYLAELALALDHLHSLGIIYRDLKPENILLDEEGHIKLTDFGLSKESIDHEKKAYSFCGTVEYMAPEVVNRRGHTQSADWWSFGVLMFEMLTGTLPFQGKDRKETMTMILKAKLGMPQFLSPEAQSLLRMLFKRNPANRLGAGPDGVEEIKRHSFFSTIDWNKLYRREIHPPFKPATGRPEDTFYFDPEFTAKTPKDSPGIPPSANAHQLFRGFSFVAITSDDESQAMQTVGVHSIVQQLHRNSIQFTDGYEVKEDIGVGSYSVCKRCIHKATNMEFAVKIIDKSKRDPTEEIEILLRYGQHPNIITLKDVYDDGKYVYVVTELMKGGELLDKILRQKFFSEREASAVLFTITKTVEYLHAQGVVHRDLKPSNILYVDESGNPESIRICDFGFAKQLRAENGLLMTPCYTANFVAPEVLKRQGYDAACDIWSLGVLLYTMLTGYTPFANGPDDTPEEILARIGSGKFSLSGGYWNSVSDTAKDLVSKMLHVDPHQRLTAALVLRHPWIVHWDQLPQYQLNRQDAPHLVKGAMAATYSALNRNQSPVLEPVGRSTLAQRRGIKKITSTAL
Chain of CDK10 (Q15131 whole entry): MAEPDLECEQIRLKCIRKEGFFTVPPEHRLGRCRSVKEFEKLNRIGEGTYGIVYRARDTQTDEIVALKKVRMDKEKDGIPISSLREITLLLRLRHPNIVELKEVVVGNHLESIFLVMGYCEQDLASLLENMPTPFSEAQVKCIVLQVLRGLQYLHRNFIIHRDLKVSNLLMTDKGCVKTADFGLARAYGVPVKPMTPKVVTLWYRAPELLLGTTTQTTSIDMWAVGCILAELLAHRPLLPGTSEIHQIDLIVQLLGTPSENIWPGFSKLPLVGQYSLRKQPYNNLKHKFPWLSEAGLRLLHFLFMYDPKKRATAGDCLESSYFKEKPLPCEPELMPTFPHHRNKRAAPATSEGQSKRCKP
Chain of PIM2 (Q9P1W9 whole entry): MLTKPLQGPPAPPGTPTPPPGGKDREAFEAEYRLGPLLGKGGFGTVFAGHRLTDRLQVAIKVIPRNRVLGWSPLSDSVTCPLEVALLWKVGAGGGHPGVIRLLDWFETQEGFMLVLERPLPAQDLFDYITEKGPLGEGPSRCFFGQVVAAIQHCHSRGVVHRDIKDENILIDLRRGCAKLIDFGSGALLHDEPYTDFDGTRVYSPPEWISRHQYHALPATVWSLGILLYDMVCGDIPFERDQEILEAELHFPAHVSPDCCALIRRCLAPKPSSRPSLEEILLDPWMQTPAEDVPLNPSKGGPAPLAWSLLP
Chain of MAP2K1 (Q02750 whole entry): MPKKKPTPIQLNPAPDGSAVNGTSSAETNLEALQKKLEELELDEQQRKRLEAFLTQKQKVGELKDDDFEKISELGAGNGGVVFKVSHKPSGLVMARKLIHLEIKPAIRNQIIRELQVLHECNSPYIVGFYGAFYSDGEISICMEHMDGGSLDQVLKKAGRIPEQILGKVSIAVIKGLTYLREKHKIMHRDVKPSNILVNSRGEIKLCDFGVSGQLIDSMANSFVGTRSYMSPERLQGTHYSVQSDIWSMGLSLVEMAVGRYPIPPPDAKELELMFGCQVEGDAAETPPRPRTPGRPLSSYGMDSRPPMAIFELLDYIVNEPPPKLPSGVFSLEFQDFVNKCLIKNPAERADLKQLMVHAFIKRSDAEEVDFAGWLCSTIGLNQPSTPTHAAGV
Chain of STK17A (Q9UEE5 whole entry): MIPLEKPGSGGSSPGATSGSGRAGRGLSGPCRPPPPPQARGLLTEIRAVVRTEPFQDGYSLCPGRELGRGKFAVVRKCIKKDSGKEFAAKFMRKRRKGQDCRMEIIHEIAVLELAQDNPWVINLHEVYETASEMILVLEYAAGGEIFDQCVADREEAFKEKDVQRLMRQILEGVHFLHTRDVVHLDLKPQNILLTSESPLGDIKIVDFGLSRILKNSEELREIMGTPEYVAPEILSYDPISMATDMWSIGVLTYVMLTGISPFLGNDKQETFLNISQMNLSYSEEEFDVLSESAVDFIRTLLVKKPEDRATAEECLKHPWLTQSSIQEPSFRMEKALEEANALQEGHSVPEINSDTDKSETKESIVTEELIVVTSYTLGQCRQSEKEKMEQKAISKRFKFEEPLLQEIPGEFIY
Chain of RPS6KA6 (Q9UK32 whole entry): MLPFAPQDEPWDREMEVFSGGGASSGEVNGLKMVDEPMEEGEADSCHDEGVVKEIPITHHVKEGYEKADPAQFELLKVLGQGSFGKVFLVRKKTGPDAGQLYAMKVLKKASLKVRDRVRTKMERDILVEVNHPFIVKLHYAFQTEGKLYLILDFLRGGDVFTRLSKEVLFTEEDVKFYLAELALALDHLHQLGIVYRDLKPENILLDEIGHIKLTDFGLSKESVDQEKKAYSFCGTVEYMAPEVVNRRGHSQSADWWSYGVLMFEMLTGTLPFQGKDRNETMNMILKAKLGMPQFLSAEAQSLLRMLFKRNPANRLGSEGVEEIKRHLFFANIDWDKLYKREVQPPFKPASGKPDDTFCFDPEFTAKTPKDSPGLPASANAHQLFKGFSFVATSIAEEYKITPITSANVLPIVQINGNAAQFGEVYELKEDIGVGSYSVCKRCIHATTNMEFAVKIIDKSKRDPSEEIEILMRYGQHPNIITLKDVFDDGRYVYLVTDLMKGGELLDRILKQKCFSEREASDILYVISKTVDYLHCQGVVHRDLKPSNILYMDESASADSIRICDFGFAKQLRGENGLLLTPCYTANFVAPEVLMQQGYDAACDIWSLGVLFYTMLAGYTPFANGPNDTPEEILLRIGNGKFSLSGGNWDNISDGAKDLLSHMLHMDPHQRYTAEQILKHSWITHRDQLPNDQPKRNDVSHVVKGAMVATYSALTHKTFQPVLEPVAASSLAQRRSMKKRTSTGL

COc1nc(N[C@H]2CC[C@H](NS(=O)(=O)CC(C)C)CC2)nc2[nH]nc(N3CCOC[C@H]3C)c12 [compound 39, N-(trans-4-((4-Methoxy-3-((R)-3-methylmorpholino)-1H-pyrazolo[3,4-d]pyrimidin-6-yl)amino)cyclohexyl)-2-methylpropane-1-sulfonamide]
≥ 20 µM: all assays above
